Assay results from patent US9914730B2, “Azaquinazoline inhibitors of Atypical protein Kinase C” (Ignyta, Inc., priority 2012, dated 2018).

Biological target: T1, full-length human PKCι (Homo sapiens, UniProt P41743)
T1 construct: Recombinant, full-length human PKCι expressed in Sf21 insect cells is also commercially available; purchased; host or cells: Sf21 insect cells
T1 sequence (P41743 1-596): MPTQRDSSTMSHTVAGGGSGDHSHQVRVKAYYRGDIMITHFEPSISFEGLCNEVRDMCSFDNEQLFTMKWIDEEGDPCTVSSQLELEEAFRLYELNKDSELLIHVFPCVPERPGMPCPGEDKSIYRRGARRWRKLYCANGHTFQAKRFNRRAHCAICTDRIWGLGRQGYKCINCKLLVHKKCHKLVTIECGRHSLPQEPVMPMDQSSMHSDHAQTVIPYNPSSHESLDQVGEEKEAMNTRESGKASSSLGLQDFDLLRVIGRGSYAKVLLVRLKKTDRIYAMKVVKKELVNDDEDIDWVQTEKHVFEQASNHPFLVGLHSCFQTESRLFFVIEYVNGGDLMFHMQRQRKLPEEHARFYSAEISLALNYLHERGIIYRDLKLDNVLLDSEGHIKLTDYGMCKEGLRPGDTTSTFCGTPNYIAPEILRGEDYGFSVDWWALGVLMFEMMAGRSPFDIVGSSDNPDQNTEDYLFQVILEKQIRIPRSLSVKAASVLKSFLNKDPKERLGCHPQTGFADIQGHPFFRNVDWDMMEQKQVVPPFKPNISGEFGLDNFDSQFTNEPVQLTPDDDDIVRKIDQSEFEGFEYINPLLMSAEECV
Experiment: PKCι IC50 IMAP assay, full-length PKCι at 150 μM ATP
Format: biochemical
Conditions: read-out: IC50 in IMAP assay against full length PKCi at 150 μM ATP
Description: Assays are based on the ability of PKCι to phosphorylate a commercially available peptide substrate in vitro. The peptide substrate is FAM-PKCε pseudopeptide derived peptide, and comprises the amino acid sequence 5FAM-[…]-NH2. Recombinant, full-length human PKCι expressed in Sf21 insect cells is also commercially available. Recombinant, kinase-domain human PKCι is expressed and purified in-house.
The procedure below explains how dose response curves for inhibitors of PKCι are obtained. The screen described is for a 384 well format but the assay can be adapted to 1536 or other formats as required.
Compounds to be tested are dissolved in 100% DMSO. Compounds are diluted as required to give a final concentration of 4% DMSO (v/v) in the assay. 1 μl is plated into 384 well black low-binding flat bottomed assay plates which are used immediately. Dilutions and additions of compound to assay plates are carried out using Matrix WellMate® and Matrix PlateMate® Plus liquid handling systems.
On the day of the screen PKCι/substrate working solution, and ATP working solution, are prepared in buffer containing 20 mM tris-HCl pH7.5, 10 mM MgCl2, 0.01% Triton X100, 250 μM EGTA and 1 mM DTT. The final concentration of PKCι used varies depending on the batch of protein but is typically 15 pM. The final concentration of peptide substrate in the assay is 100 nM. ATP is used at a final concentration of 150 μM or 25 μM in the assays containing full-length or kinase-domain PKCι respectively, which corresponds to five times or equal to the KM^APP for ATP for each enzyme, respectively. The final buffer concentration in the assay is 18 mM tris-HCl pH7.5, 9 mM MgCl2, 0.009% Triton X100, 225 μM EGTA and 0.9 mM DTT. Relevant controls are included, namely no compound and no enzyme. 5 μl PKCι/substrate working solution at 30 pM and 200 nM, respectively, is added to the wells, followed by 4 μl ATP working solution at 375 μM or 62.5 μM for full-length or kinase-domain PKCι respectively, using a 16 channel Matrix pipette. The reaction is allowed to incubate for 60 minutes at room temperature, before the reaction is stopped and developed by the addition of 20 μl IMAP™ development reagent (Molecular Devices). IMAP development reagent consists of 0.25% (v/v) IMAP progressive binding reagent, 17% (v/v) IMAP progressive binding buffer A and 3% (v/v) IMAP progressive binding buffer B. The plates are then incubated for 2 hours at room temperature before being read using an appropriate plate reader, for example a Molecular Devices HT Analyst or a BMG Pherastar. Plates are read using a fluorescence polarisation protocol with excitation at 485 nm and emission at 530 nm, and dichroic mirror at 505 nm.
Percentage inhibition values are calculated from fluorescence polarisation values, using the no compound and no enzyme control values as 0% and 100% inhibition, respectively. IC50 determination is performed with ExcelFit software (IDBS) using curve fit 205. Z′ factors are determined for each plate tested and are all above 0.5.

Row | SMILES | IC50
1 | COc1cncc2nc(-c3ccncc3)nc(N3CCN[C@H](C)C3)c12 [Example 52, (3R)-1-[5-methoxy-2-(pyridin-4-yl)-pyrido[3,4-d]-pyrimidin-4-yl]-3-methylpiperazine] | 1000 to 10000 nM
2 | COc1cncc2nc(-c3ccnc(Nc4cccc(C#N)c4)c3)nc(N3CCNCC3)c12 [Example 205, 3-[4-(5-Methoxy-4-piperazin-1-yl-pyrido[3,4-d]pyrimidin-2-yl)-pyridin-2-ylamino]-benzonitrile] | 100 to 1000 nM
3 | Fc1ccc2nc(Nc3cc(-c4nc(N5CCNCC5)c5c(C6CC6)cncc5n4)ccn3)nn2c1 [Example 2039, [4-(5-Cyclopropyl-4-piperazin-1-yl-pyrido[3,4-d]pyrimidin-2-yl)-pyridin-2-yl]-(6-fluoro-[1,2,4]triazolo[1,5-a]pyridin-2-yl)-amine] | < 100 nM
4 | c1ccc(Nc2cc(-c3nc(N4CC5CNCC5C4)c4c(C5CC5)cncc4n3)ccn2)cc1 (centres unmarked) [Example 2131, {4-[5-Cyclopropyl-4-(hexahydro-pyrrolo[3,4-c]pyrrol-2-yl)-pyrido[3,4-d]pyrimidin-2-yl]-pyridin-2-yl}-phenyl-amine] | < 100 nM
5 | CN(c1nc(-c2ccnc3[nH]c(C(F)(F)F)cc23)nc2c(Cl)ncc(C3CC3)c12)C1CCNCC1 [Example 2136, [8-Chloro-5-cyclopropyl-2-(2-trifluoromethyl-1H-pyrrolo[2,3-b]pyridin-4-yl)-pyrido[3,4-d]pyrimidin-4-yl]-methyl-piperidin-4-yl-amine] | < 100 nM
6 | Cn1nc(Nc2cc(-c3nc(N4CCNCC4)c4c(C5CC5)cncc4n3)ccn2)c2ccccc21 [Example 2061, [4-(5-Cyclopropyl-4-piperazin-1-yl-pyrido[3,4-d]pyrimidin-2-yl)-pyridin-2-yl]-(1-methyl-1H-indazol-3-yl)-amine] | < 100 nM
7 | COc1cccc(-c2nccc3c(NC[C@@H](N)Cc4ccccc4)nc(-c4ccncc4)nc23)c1 [Example 94, N-[(2S)-2-amino-3-phenylpropyl]-8-(3-methoxy-phenyl)-2-(pyridin-4-yl)-pyrido[3,4-d]-pyrimidin-4-amine] | 100 to 1000 nM
8 | CC(C)(C)c1ccc(Nc2cc(-c3nc(N4CCNCC4)c4c(C5CC5)cncc4n3)ccn2)c(Cl)c1 [Example 529, (4-tert-Butyl-2-chloro-phenyl)-[4-(5-cyclopropyl-4-piperazin-1-yl-pyrido[3,4-d]pyrimidin-2-yl)-pyridin-2-yl]-amine] | < 100 nM
9 | NC[C@H](Cc1ccccc1)Nc1nc(-c2ccncc2)nc2cnccc12 [Example 28, N-[(2S)-1-amino-3-phenylpropan-2-yl]-2-(pyridin-4-yl)-pyrido[3,4-d]-pyrimidin-4-amine] | 100 to 1000 nM
10 | N[C@H](CNc1nc(-c2ccncc2)nc2c(-c3ccccc3Cl)nccc12)Cc1ccccc1 [Example 96, N-[(2S)-2-amino-3-phenylpropyl]-8-(2-chlorophenyl)-2-(pyridin-4-yl)pyrido[3,4-d]pyrimidin-4-amine] | 100 to 1000 nM
11 | CC(O)c1ccccc1Nc1cc(-c2nc(N3CCNCC3)c3c(C4CC4)cncc3n2)ccn1 (centres unmarked) [Example 560, 1-{2-[4-(5-Cyclopropyl-4-piperazin-1-yl-pyrido[3,4-d]pyrimidin-2-yl)-pyridin-2-ylamino]-phenyl}-ethanol] | 100 to 1000 nM
12 | COc1cncc2nc(-c3ccnc(Nc4ccccc4F)c3)nc(N[C@@H]3CCNC3)c12 [Example 228, {2-[2-(2-Fluoro-phenylamino)-pyridin-4-yl]-5-methoxy-pyrido[3,4-d]pyrimidin-4-yl}-(R)-pyrrolidin-3-yl-amine] | < 100 nM
13 | COc1cncc2nc(-c3ccnc(Nc4cccc(C(F)(F)F)c4)c3)nc(N3CCNCC3)c12 [Example 446, [4-(5-Methoxy-4-piperazin-1-yl-pyrido[3,4-d]pyrimidin-2-yl)-pyridin-2-yl]-(3-trifluoromethyl-phenyl)-amine] | 100 to 1000 nM
14 | COc1cncc2nc(-c3ccnc(Nc4cc(F)ccc4F)c3)nc(N3CCNCC3)c12 [Example 440, (2,5-Difluoro-phenyl)-[4-(5-methoxy-4-piperazin-1-yl-pyrido[3,4-d]pyrimidin-2-yl)-pyridin-2-yl]-amine] | < 100 nM
15 | COc1cc(Nc2cc(-c3nc(N4CCNCC4)c4c(C5CC5)cncc4n3)ccn2)cc(OC)c1OC [Example 611, [4-(5-Cyclopropyl-4-piperazin-1-yl-pyrido[3,4-d]pyrimidin-2-yl)-pyridin-2-yl]-(3,4,5-trimethoxy-pheny)-amine] | 100 to 1000 nM
16 | Fc1ccc(F)c(Nc2cc(-c3nc(N4CCNCC4)c4c(C5CC5)cncc4n3)ccn2)c1Cl [Example 635, (2-Chloro-3,6-difluoro-phenyl)-[4-(5-cyclopropyl-4-piperazin-1-yl-pyrido[3,4-d]pyrimidin-2-yl)-pyridin-2-yl]-amine] | < 100 nM
17 | c1cc(-c2nc(N3CCNCC3)c3c(C4CC4)cncc3n2)c2cc([C@@H]3C[C@H]4CC[C@@H]3O4)[nH]c2n1 (racemic) [Example 2121, (±)-exo-5-Cyclopropyl-2-[2-(7-oxa-bicyclo[2.2.1]hept-2-yl)-1H-pyrrolo[2,3-b]pyridin-4-yl]-4-piperazin-1-yl-pyrido[3,4-d]pyrimidine] | < 100 nM
18 | CN(CC1CCNCC1)c1nc(-c2ccnc3[nH]c(C(F)(F)F)cc23)nc2cncc(C3CC3)c12 [Example 2139, [5-Cyclopropyl-2-(2-trilfuoromethyl-1H-pyrrolo[2,3-b]pyridin-4-yl)-pyrido[3,4-d]pyrimidin-4-yl]-methyl-piperidin-4-ylmethyl-amine] | < 100 nM
19 | COCCNC(=O)C1CCN(c2nc(-c3ccnc(Nc4c(F)cccc4F)c3)nc3cncc(C4CC4)c23)CC1 [Example 739, 1-{5-Cyclopropyl-2-[2-(2,6-difluoro-phenylamino)-pyridin-4-yl]-pyrido[3,4-d]pyrimidin-4-yl}-piperidine-4-carboxylic acid (2-methoxy-ethyl)-amide] | 100 to 1000 nM
20 | CN1CCN(c2cccc(Nc3cc(-c4nc(N5CCC[C@@H](O)C5)c5c(C6CC6)cncc5n4)ccn3)c2)CC1 [Example 720, (R)-1-(5-Cyclopropyl-2-{2-[3-(4-methyl-piperazin-1-yl)-phenylamino]-pyridin-4-yl}-pyrido[3,4-d]pyrimidin-4-yl)-piperidin-3-ol] | < 100 nM
21 | COc1cncc2nc(-c3ccnc(Nc4ccccn4)c3)nc(N3CCNCC3)c12 [Example 387, [4-(5-Methoxy-4-piperazin-1-yl-pyrido[3,4-d]pyrimidin-2-yl)-pyridin-2-yl]-pyridin-2-yl-amine] | < 100 nM
22 | Cc1cc2c(-c3nc(N4CCNCC4)c4c(C5CCC5)cncc4n3)ccnc2[nH]1 [Example 2112, 5-Cyclobutyl-2-(2-methyl-1H-pyrrolo[2,3-b]pyridin-4-yl)-4-piperazin-1-yl-pyrido[3,4-d]pyrimidine] | < 100 nM
23 | Fc1cccc(F)c1Nc1cc(-c2nc(NC3CCCNCC3)c3c(C4CC4)cncc3n2)ccn1 (centres unmarked) [Example 2058, Azepan-4-yl-{5-cyclopropyl-2-[2-(2,6-difluoro-phenylamino)-pyridin-4-yl]-pyrido[3,4-d]pyrimidin-4-yl}-amine] | < 100 nM
